Here are results for three compounds from publication PMC9281569, “Two HCN4 Channels Play Functional Roles in the Zebrafish Heart” (Frontiers in Physiology, 2022).

Where “and” joins values, the source holds several entries; their conditions need not be identical. Equal entries are not always repeated. Structures can show the parent of a compound that is named as a salt. Where two headings read alike, the source gives them in different places.

The term IC50 denotes the concentration at which inhibition is half-maximal.

The target in one assay is T1, DrHCN4 (Danio rerio, UniProt A0A8N7UQR8).
T1 sequence (A0A8N7UQR8 1-1140): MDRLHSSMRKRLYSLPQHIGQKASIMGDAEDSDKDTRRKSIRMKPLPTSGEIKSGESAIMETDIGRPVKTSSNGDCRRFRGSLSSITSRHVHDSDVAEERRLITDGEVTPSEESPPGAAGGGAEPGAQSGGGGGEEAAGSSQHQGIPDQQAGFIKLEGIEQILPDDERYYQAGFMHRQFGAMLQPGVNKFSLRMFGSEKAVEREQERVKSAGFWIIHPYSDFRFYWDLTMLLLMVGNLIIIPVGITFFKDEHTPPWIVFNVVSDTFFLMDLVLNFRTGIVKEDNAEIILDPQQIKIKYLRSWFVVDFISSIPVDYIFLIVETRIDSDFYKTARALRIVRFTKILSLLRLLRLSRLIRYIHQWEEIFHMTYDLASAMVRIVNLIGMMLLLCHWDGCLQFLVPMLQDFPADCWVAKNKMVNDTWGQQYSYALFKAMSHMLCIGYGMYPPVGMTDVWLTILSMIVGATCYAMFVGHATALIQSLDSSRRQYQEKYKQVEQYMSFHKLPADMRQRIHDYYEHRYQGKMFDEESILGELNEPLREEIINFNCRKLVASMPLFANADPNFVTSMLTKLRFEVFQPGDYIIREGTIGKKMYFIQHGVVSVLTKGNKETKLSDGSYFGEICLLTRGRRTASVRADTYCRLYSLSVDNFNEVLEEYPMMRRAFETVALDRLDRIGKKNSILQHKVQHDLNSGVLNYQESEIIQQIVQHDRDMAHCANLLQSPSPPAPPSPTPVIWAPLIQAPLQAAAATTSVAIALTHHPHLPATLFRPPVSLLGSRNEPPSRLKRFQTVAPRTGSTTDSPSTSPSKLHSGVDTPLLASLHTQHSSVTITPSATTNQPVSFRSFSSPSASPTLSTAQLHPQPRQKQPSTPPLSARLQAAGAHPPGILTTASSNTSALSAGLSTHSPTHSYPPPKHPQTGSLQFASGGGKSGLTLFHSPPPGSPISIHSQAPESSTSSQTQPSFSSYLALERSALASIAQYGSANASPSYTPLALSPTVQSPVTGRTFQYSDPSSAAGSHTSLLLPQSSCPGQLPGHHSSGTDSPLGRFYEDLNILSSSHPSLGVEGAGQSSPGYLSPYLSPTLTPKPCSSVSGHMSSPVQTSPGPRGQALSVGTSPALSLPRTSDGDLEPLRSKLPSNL
Description: Inhibition of HCN4 currents in Xenopus oocytes, two-electrode voltage clamp. Type of assay: cell-based, zebrafish (Danio rerio). To be noted: holding −30 mV, hyperpolarized to −120 mV for 2 s, room temperature. In general terms: Two-electrode voltage clamp is typically applied to oocytes expressing channels or transporters.

Assay [1] has as its system Isolated adult zebrafish heart. Also on record: method as in Stoyek et al., 2022. To be noted: bath application; ref Stoyek et al., 2022; cited from earlier work.
In the next assay the test system is patients. Also on record: method as in Swedberg et al., 2010. To be noted: administration to patients; ref Swedberg et al., 2010; cited from earlier work.
[2] abbreviates: DrHCN4 in Xenopus oocytes, read-out: IC50.

For the compound `[Cl-].[Cs+]` [Cesium ion, Cesium chloride], the IC50 at DrHCN4 (DrHCN4 in Xenopus oocytes, listed as Cs^+, read-out: IC50) stood at 44 ± 11 µM; at DrHCN4 (setting [2]), 44.3 ± 11.2 µM. In assay [1], the “Block of isolated adult zebrafish heart” value was 73%.
With `COc1cc2c(cc1OC)CC(=O)N(CCCN(C)C[C@H]1Cc3cc(OC)c(OC)cc31)CC2` [Ivabradine, ivabradine hydrochloride], on DrHCN4 (IC50, DrHCN4 in Xenopus oocytes), the IC50 is 31 µM and 30.9 µM. Also, the “Reduction of heart rate” value with patients is given as “about 20%”. Also, the “Block of isolated adult zebrafish heart” value in assay [1] is recorded as 86%.
Consider `CCN(c1ccccc1)c1cc(=NC)n(C)c(C)n1.Cl` [ZD7288], for which, on DrHCN4 (setting [2]), the IC50 is 699 ± 216 µM.
